Measured values from US20150050210A1 (priority 2012, published 2015).
Like-named read-outs stand apart in the source and are kept apart here.

Tests used:
[1] = Compatibility studies of bendamustine with excipients (1:1 binary mixtures); type: physicochemical; details: for Total impurities %: open container, one month
Method: Compatibility studies of bendamustine with different excipients used in hot melt extrusion process were realised with incubation of 1:1 (w/w) binary mixtures of these excipients with bendamustine at 40° C. 75% RH in an open container for one month.

[2] = Temperature stability studies of bendamustine; type: physicochemical
Method: Temperature stability studies of bendamustine were conducted with treatment of bendamustine at given temperatures for 10 minutes.

[3] = Rat studies to determine oral bioavailability of bendamustine; details: male, Sprague-Dawley, in vivo; for AUC(0-inf): read-out: mean AUC0-∞
Method: Rat studies were carried out with the extrudate to determine the oral bioavailability of bendamustine. For this purpose 3 mg/kg bendamustine was applied parenterally to 3 animals and samples were taken at 0, 0.083, 0.25, 0.5, 1, 2, 4, 8 hours and analyzed with a validated HPLC/MS method. Furthermore extrudates of the invention were applied orally to 9 rats with a bendamustine concentration of 10.8 mg/kg. Samples were taken at 0, 0.25, 0.5, 1, 2, 4, 6, 8 hours and analyzed with a validated HPLC/MS method

[4] = mice; cited from earlier work

For `Cn1c(CCCC(=O)O)nc2cc(N(CCCl)CCCl)ccc21` [bendamustine, 4-[5-[Bis(2-chloroethyl)amino]-1-methylbenzimidazol-2-yl]butanoic acid], the Total impurities % ([1]; 1:1 (w/w) mixture with Ascorbic acid, 40° C. 75% RH) was 0.121%, the Total impurities % ([1]; 1:1 (w/w) mixture with Citric acid, 40° C. 75% RH) was 0.098% and the Total impurities % ([1]; 1:1 (w/w) mixture with Ditert butyl methyl phenol, 40° C. 75% RH) was 0.258%. For the same compound, the Total impurities % ([1]; 1:1 (w/w) mixture with Eudragit ® EPO, 40° C. 75% RH) was 0.154%, the Total impurities % ([1]; 1:1 (w/w) mixture with Kollidone VA64, 40° C. 75% RH) was 0.091% and the Total impurities % ([1]; 1:1 (w/w) mixture with PEG 1000, 40° C. 75% RH) was 0.326%. It also gave a Total impurities % ([1]; 1:1 (w/w) mixture with PEG 2000, 40° C. 75% RH) of 0.229%, a Total impurities % ([1]; 1:1 (w/w) mixture with Plasdone K12, 40° C. 75% RH) of 0.124% and a Total impurities % ([1]; 1:1 (w/w) mixture with Soluplus, 40° C. 75% RH) of 0.118%. For the same compound, the Total impurities % ([1]; 1:1 (w/w) mixture with Vit E acetate, 40° C. 75% RH) was 0.101%, the Compatibility with excipients ([1]; with large amounts of PEG 2000, PEG 1000 and Diter butyl methyl phenol, 40° C. 75% RH) was “incompatibility” and the Assay % ([2]; 70 ° C. for 10 minutes) was 101.75%. For the same compound, the “Total Impurity %” value ([2]; 70 ° C. for 10 minutes) was 0.7%, the Assay % ([2]; 100 ° C. for 10 minutes) was 99.216% and the “Total Impurity %” value ([2]; 100 ° C. for 10 minutes) was 0.8%. The Assay % ([2]; 120 ° C. for 10 minutes) was 97.732%, the “Total Impurity %” value ([2]; 120 ° C. for 10 minutes) was 1.3% and the bioavailability ([3]; iv, 3 mg/kg) was 100%. For the same compound, the AUC(0-inf) ([3]; iv, 3 mg/kg) was 675 ng·h/mL, the bioavailability ([3]; po, 10 mg/kg) was 33% and the AUC(0-inf) ([3]; po, 10 mg/kg) was 742 ng·h/mL. For the same compound, the oral bioavailability [4] was 40%.
